From ChEMBL document CHEMBL5620413, “Novel pterostilbene derivatives ameliorate heart failure by reducing oxidative stress and inflammation through regulating Nrf2/NF-κB signaling pathway” (Eur J Med Chem, 2023)
The source made the active and inactive calls.

Assays:
RAW264.7 [1] = test: Antiinflammatory activity in mouse RAW264.7 cells assessed as decrease in LPS-induced NO production at 10 uM preincubated for 1 hr followed by LPS treatment for 24 hrs by Griess reagent based assay; type: functional, cell-based; settings: time 25.0 hrs
RAW264.7 [2] = test: Antiinflammatory activity in mouse RAW264.7 cells assessed as decrease in LPS-induced NO production preincubated for 1 hr followed by LPS treatment for 24 hrs by Griess reagent based assay; type: functional, cell-based; settings: dose <= 10.0 µM, time 25.0 hrs
RAW264.7 [3] = test: Antiinflammatory activity in mouse RAW264.7 cells assessed as decrease in LPS-induced iNOS expression preincubated for 1 hr followed by LPS treatment for 24 hrs by Western blot analysis; type: functional, cell-based; settings: dose <= 10.0 µM, time 25.0 hrs
RAW264.7 [4] = test: Antiinflammatory activity in mouse RAW264.7 cells assessed as decrease in LPS-induced COX2 expression preincubated for 1 hr followed by LPS treatment for 24 hrs by Western blot analysis; type: functional, cell-based; settings: dose <= 10.0 µM, time 25.0 hrs
RAW264.7 [5] = test: Inhibition of ROS generation in mouse RAW264.7 cells preincubated for 1 hr followed by LPS treatment for 24 hrs by DCFH-DA dye based analysis; type: functional, cell-based; settings: dose <= 10.0 µM, time 25.0 hrs
H9c2 [6] = test: Inhibition of ROS generation in rat H9c2 cells preincubated for 1 hr followed by LPS treatment for 24 hrs by DCFH-DA dye based analysis; type: functional, cell-based; settings: dose <= 10.0 µM, time 25.0 hrs
RAW264.7 [7] = test: Inhibition of ROS generation in mouse RAW264.7 cells preincubated for 1 hr followed by DOX treatment for 12 hrs by DCFH-DA dye based analysis; type: functional, cell-based; settings: dose <= 10.0 µM, time 13.0 hrs
H9c2 [8] = test: Inhibition of ROS generation in rat H9c2 cells preincubated for 1 hr followed by DOX treatment for 12 hrs by DCFH-DA dye based analysis; type: functional, cell-based; settings: dose <= 10.0 µM, time 13.0 hrs
RAW264.7 [9] = test: Inhibition of ROS generation in mouse RAW264.7 cells assessed as increase in LPS-reduced Nrf2 expression upto 10 uM preincubated for 1 hr followed by LPS treatment for 24 hrs by Western blot analysis; type: functional, cell-based; settings: time 25.0 hrs
H9c2 [10] = test: Inhibition of ROS generation in rat H9c2 cells assessed as increase in LPS-reduced Nrf2 expression upto 10 uM preincubated for 1 hr followed by LPS treatment for 24 hrs by Western blot analysis; type: functional, cell-based; settings: time 25.0 hrs
RAW264.7 [11] = test: Inhibition of ROS generation in mouse RAW264.7 cells assessed as increase in DOX-reduced Nrf2 expression upto 10 uM preincubated for 1 hr followed by DOX treatment for 12 hrs by Western blot analysis; type: functional, cell-based; settings: time 13.0 hrs
H9c2 [12] = test: Inhibition of ROS generation in rat H9c2 cells assessed as increase in DOX-reduced CAT expression upto 10 uM preincubated for 1 hr followed by DOX treatment for 12 hrs by Western blot analysis; type: functional, cell-based; settings: time 13.0 hrs
H9c2 [13] = test: Inhibition of ROS generation in rat H9c2 cells assessed as increase in DOX-reduced GPX1 expression upto 10 uM preincubated for 1 hr followed by DOX treatment for 12 hrs by Western blot analysis; type: functional, cell-based; settings: time 13.0 hrs
RAW264.7 [14] = test: Antiinflammatory activity against mouse RAW264.7 cells assessed as decrease in LPS-induced TNF-alpha expression upto 10 uM preincubated for 1 hr followed by LPS treatment for 24 hrs by Western blot analysis; type: functional, cell-based; settings: time 25.0 hrs
H9c2 [15] = test: Antiinflammatory activity against rat H9c2 cells assessed as decrease in DOX-induced TNF-alpha expression upto 10 uM preincubated for 1 hr followed by DOX treatment for 12 hrs by Western blot analysis; type: functional, cell-based; settings: time 13.0 hrs
H9c2 [16] = test: Antiinflammatory activity against rat H9c2 cells assessed as decrease in LPS-induced NF-kappaB phosphorylation upto 10 uM preincubated for 1 hr followed by LPS treatment for 24 hrs by Western blot analysis; type: functional, cell-based; settings: time 25.0 hrs
RAW264.7 [17] = test: Antiinflammatory activity against mouse RAW264.7 cells assessed as decrease in DOX-induced NF-kappaB phosphorylation upto 10 uM preincubated for 1 hr followed by DOX treatment for 12 hrs by Western blot analysis; type: functional, cell-based; settings: time 13.0 hrs
Mus musculus [18] = test: Protection against cardiac dysfunction C57BL/6J mouse model assessed as increase in DOX-reduced LVFS at 7 mg/kg, ip administered daily for 4 weeks by echocardiography; type: functional, organism-based
Mus musculus [19] = test: Protection against cardiac dysfunction C57BL/6J mouse model assessed as increase in DOX-reduced heart rate at 7 mg/kg, ip administered daily for 4 weeks by echocardiography; type: functional, organism-based
Mus musculus [20] = test: Protection against cardiac dysfunction C57BL/6J mouse model assessed as increase in DOX-reduced heart size at 7 mg/kg, ip administered daily for 4 weeks; type: functional, organism-based
Mus musculus [21] = test: Protection against cardiac dysfunction C57BL/6J mouse model assessed as increase in DOX-reduced ratio of heart weight to body weight at 7 mg/kg, ip administered daily for 4 weeks; type: functional, organism-based
Mus musculus [22] = test: Protection against cardiac dysfunction C57BL/6J mouse model assessed as decrease in DOX-induced serum ALP level at 7 mg/kg, ip administered daily for 4 weeks; type: functional, organism-based
Mus musculus [23] = test: Protection against cardiac dysfunction C57BL/6J mouse model assessed as decrease in DOX-induced serum ALT level at 7 mg/kg, ip administered daily for 4 weeks; type: functional, organism-based
Mus musculus [24] = test: Protection against cardiac dysfunction C57BL/6J mouse model assessed as decrease in DOX-induced serum CK level at 7 mg/kg, ip administered daily for 4 weeks; type: functional, organism-based
Mus musculus [25] = test: Protection against cardiac dysfunction C57BL/6J mouse model assessed as decrease in DOX-induced serum LDH level at 7 mg/kg, ip administered daily for 4 weeks; type: functional, organism-based
Mus musculus [26] = test: Protection against cardiac dysfunction C57BL/6J mouse model assessed as decrease in DOX-induced serum HBDH level at 7 mg/kg, ip administered daily for 4 weeks; type: functional, organism-based
Mus musculus [27] = test: Protection against cardiac dysfunction C57BL/6J mouse model assessed as decrease in DOX-induced myocardial cell injury at 7 mg/kg, ip administered daily for 4 weeks by H and E staining based analysis; type: functional, organism-based
Mus musculus [28] = test: Protection against cardiac dysfunction C57BL/6J mouse model assessed as decrease in DOX-induced myocardial fibrosis at 7 mg/kg, ip administered daily for 4 weeks by Sirius Red staining based analysis; type: functional, organism-based
Mus musculus [29] = test: Inhibition of DOX-induced cardiac ROS generation in cardiac dysfunction C57BL/6J mouse model at 7 mg/kg, ip administered daily for 4 weeks by DHE staining based analysis; type: functional, organism-based
Mus musculus [30] = test: Protection against cardiac dysfunction C57BL/6J mouse model assessed as increase in DOX-reduced cardiac SOD2 expression at 7 mg/kg, ip administered daily for 4 weeks by Western blot analysis; type: functional, organism-based
Mus musculus [31] = test: Protection against cardiac dysfunction C57BL/6J mouse model assessed as increase in DOX-reduced cardiac GPX1 expression at 7 mg/kg, ip administered daily for 4 weeks by Western blot analysis; type: functional, organism-based
Mus musculus [32] = test: Antiinflammatory activity in cardiac dysfunction C57BL/6J mouse model assessed as decrease in DOX-induced IL-6 expression at 7 mg/kg, ip administered daily for 4 weeks by Western blot analysis; type: functional, organism-based
Mus musculus [33] = test: Antiinflammatory activity in cardiac dysfunction C57BL/6J mouse model assessed as decrease in DOX-induced IL-1beta expression at 7 mg/kg, ip administered daily for 4 weeks by Western blot analysis; type: functional, organism-based
Mus musculus [34] = test: Antiinflammatory activity in cardiac dysfunction C57BL/6J mouse model assessed as decrease in DOX-induced NF-kappaB expression at 7 mg/kg, ip administered daily for 4 weeks by Western blot analysis; type: functional, organism-based

CCCCOc1ccc(/C=C/c2cc(OC)cc(OC)c2C2CC(C)=NN2C(C)=O)cc1 (centres undefined)
active: Activity (RAW264.7 [1]) | Activity (RAW264.7 [2]) Dose-Dependent Effect | Activity (RAW264.7 [3]) Dose-Dependent Effect | Activity (RAW264.7 [4]) Dose-Dependent Effect | inhibition (RAW264.7 [5]) Dose-Dependent Effect | inhibition (H9c2 [6]) Dose-Dependent Effect | inhibition (RAW264.7 [7]) Dose-Dependent Effect | inhibition (H9c2 [8]) Dose-Dependent Effect | inhibition (RAW264.7 [9]) | inhibition (H9c2 [10]) | inhibition (RAW264.7 [11]) | inhibition (H9c2 [12]) | inhibition (H9c2 [13]) | Activity (RAW264.7 [14]) | Activity (H9c2 [15]) | Activity (H9c2 [16]) | Activity (RAW264.7 [17]) | Activity (Mus musculus [18]) | Activity (Mus musculus [19]) | Activity (Mus musculus [20]) | Activity (Mus musculus [21]) | Activity (Mus musculus [22]) | Activity (Mus musculus [23]) | Activity (Mus musculus [24]) | Activity (Mus musculus [25]) | Activity (Mus musculus [26]) | Activity (Mus musculus [27]) | Activity (Mus musculus [28]) | inhibition (Mus musculus [29]) | Activity (Mus musculus [30]) | Activity (Mus musculus [31]) | Activity (Mus musculus [32]) | Activity (Mus musculus [33]) | Activity (Mus musculus [34])
